In US10092547B2, “Substituted aliphanes, cyclophanes, heteraphanes, heterophanes, hetero- heteraphanes and metallocenes useful for treating HCV infections” (priority 2011, dated 2018):
Where two headings read alike, the source gives them in different places.

Test system: HCV replicon (NS5A1b) in Huh-7 cells
Assay: microbe, parasite or virus in culture
Assay type: cell-based
Conditions: Hepatitis C virus
Description: Compounds claimed herein are tested for the ability to inhibit viral replication of the Hepatitis C replicon in cultured cells in which the HCV replicon construct has been incorporated. The HCV replicon system was described by Bartenschlager, et. al (Science, 285, pp. 110-113 (1999)). The replicon system is predictive of in vivo anti-HCV activity; compounds that are active in humans uniformly evidence activity in the replicon assay.
In this assay HCV replicon containing cells are treated with different concentrations of the test compound to ascertain the ability of the test compound to suppress replication of the HCV replicon. As a positive control, HCV replicon-containing cells are treated with different concentrations of interferon alpha, a known inhibitor of HCV replication. The replicon assay system includes Neomycin Phosphotransferase (NPT) as a component of the replicon itself in order to detect the transcription of replicon gene products in the host cell. Cells in which the HCV replicon is actively replicating have high levels of NPT; the level of NPT is proportional to HCV replication. […] The NPT level of each sample is measured using a captured ELISA.
A protocol for testing compounds for the ability to inhibit viral replication of the Hepatitis C replicon cultured cells in which the replicon construct has been incorporated, follows.
The HCV replicon contains, 5′-3′, the HCV-IRES, the neomycin phosphotransferase (neo) gene, the IRES of encephalomyocarditis virus, which directs translation of HCV sequences NS3 to NS5B, and the 3′-NTR. The sequence of the HCV replicon has been deposited in GenBank (Accession no. AJ242652).
The replicon is transfected into Huh-7 cells using standard methods such as electroporation.
The equipment and materials include, but are not limited to, Huh-7 HCV replicon-containing cells, maintenance media (DMEM (Dulbecco's modified Eagle media) supplemented with 10% FBS, L-glutamine, non-essential amino acids, penicillin (100 units/ml), streptomycin (100 micrograms/ml), and 500 micrograms/ml of Geneticin (G418), screening media (DMEM supplemented with 10% FBS, L-glutamine, non-essential amino acids, penicillin (100 units/ml) and streptomycin (100 micrograms/ml), 96 well tissue culture plates (flat bottom), 96 well plates (U bottom for drug dilution), Interferon alpha for positive control, fixation reagent (such as methanol: acetone), primary antibody (rabbit anti-NPTII), secondary antibody: Eu-N1 1, and enhancement solution.
HCV replicon-containing cells support high levels of viral RNA replicon replication when their density is suitable. Over-confluency causes decreased viral RNA replication. Therefore, cells must be kept growing in log phase in the presence of 500 micrograms/ml of G418. Generally, cells should be passed twice a week at 1:4-6 dilution. Cell maintenance is conducted as follows:
HCV replicon-containing cells are examined under a microscope to ensure that cells growing well. Cells are rinsed once with PBS and 2 ml trypsin is added. The cell/trypsin mixture is incubated at 37° C. in a CO2 incubator for 3-5 minutes. After incubation 10 ml of complete media is added to stop the trypsinization reaction. Cells are blown gently, put into a 15 ml tube, and spun at 1200 rpm for 4 minutes. The trypsin/medium solution is removed. Medium (5 ml) is added and the cells are mixed carefully. The cells are counted.
The cells are then seeded onto 96-well plates at a density of 6000-7500 cells/100 microliters/well (6-7.5×10^5 cells/10 ml/plate). The plates are then incubated at 37° C. in a 5% CO2 incubator.
Cells are examined under a microscope approximated 24 hours after seeding and prior to adding drugs. If counting and dilution were performed correctly, cells are 60-70% confluent and nearly all cells should attach and spread evenly in the well.
HCV replicon-containing cells are rinsed with once PBS once; 2 mls of trypsin are then added. Cells are incubated at 37° C. in a 5% CO2 incubator for 3-5 minutes. […]

[1] = Huh-7, Example 9 replicon assay, read-out: EC50 values in HCV replicon assay
[2] = 72 h, NS5A1b, HCV replicon-containing Huh-7 cells, three days, read-out: EC50 (μM) NS5A1b

CC(C)(C)OC(=O)N1[C@H](c2nc3ccc(B4OC(C)(C)C(C)(C)O4)cc3[nH]2)C[C@@H]2CCCC[C@@H]21 [Compound 16, (2S,3aS,7aS)-tert-butyl 2-(6-(4,4,5,5-tetramethyl-1,3,2-dioxaborolan-2-yl)-1H-benzo[d]imidazol-2-yl)octahydro-1H-indole-1-carboxylate]
EC50 [1]: ≤ 10000 nM

CC(C)(C)OC(=O)Nc1ccc(B2OC(C)(C)C(C)(C)O2)cc1NC(=O)OC(C)(C)C [Compound 25, di-tert-butyl (4-(4,4,5,5-tetramethyl-1,3,2-dioxaborolan-2-yl)-1,2-phenylene)dicarbamate]
EC50 [1]: ≤ 10000 nM

COC(=O)N[C@H](C(=O)N1CCC[C@H]1c1nc(-c2ccc(-c3cc4ccc3CCc3ccc(c(-c5ccc(-c6c[nH]c([C@@H]7CCCN7C(=O)[C@@H](NC(=O)OC)C(C)C)n6)cc5)c3)CC4)cc2)c[nH]1)C(C)C [Compound 40]
EC50 [2]: 0.012 nM | EC50 [1]: ≤ 10000 nM

COC(=O)N[C@H](C(=O)N1[C@H](c2nc3cc(-c4cc5ccc4CCc4ccc(c(-c6ccc7[nH]c([C@@H]8C[C@@H]9CCCC[C@@H]9N8C(=O)[C@@H](NC(=O)OC)C(C)C)nc7c6)c4)CC5)ccc3[nH]2)C[C@@H]2CCCC[C@@H]21)C(C)C [Compound 43]
EC50 [2]: 2.85 nM

COC(=O)N[C@H](C(=O)N1CCC[C@H]1c1ncc(-c2ccc(C34CC(c5ccc(-c6cnc([C@@H]7CCCN7C(=O)[C@@H](NC(=O)OC)C(C)C)[nH]6)cc5)(C3)C4)cc2)[nH]1)C(C)C [Compound 44]
EC50 [2]: 4.08 nM

COC(=O)N[C@H](C(=O)N1CCC[C@H]1c1nc2cc(-c3cc4ccc3CCc3ccc(c(-c5ccc6[nH]c([C@@H]7CCCN7C(=O)[C@@H](NC(=O)OC)C(C)C)nc6c5)c3)CC4)ccc2[nH]1)C(C)C [Compound 45]
EC50 [2]: < 3.2 nM

COC(=O)N[C@H](C(=O)N1CCC[C@H]1c1nc(-c2ccc(-c3cc4c(-c5c[nH]c([C@@H]6CCCN6C(=O)[C@@H](NC(=O)OC)C(C)C)n5)cc3CCc3ccc(cc3)CC4)cc2)c[nH]1)C(C)C [Compound 46]
EC50 [2]: < 3.17 nM

COC(=O)N[C@H](C(=O)N1CCC[C@H]1c1nc(-c2ccc(-c3cc4ccc3CCc3ccc(c(-c5c[nH]c([C@@H]6CCCN6C(=O)[C@@H](NC(=O)OC)C(C)C)n5)c3)CC4)cc2)c[nH]1)C(C)C [Compound 47]
EC50 [2]: 5.02 nM

COC(=O)N[C@H](C(=O)N1CCC[C@H]1c1nc2cc(-c3cc4ccc3CCc3ccc(c(-c5ccc6[nH]c([C@@H]7CCCN7C(=O)[C@@H](NC(=O)OC)c7ccccc7)nc6c5)c3)CC4)ccc2[nH]1)c1ccccc1 [Compound 49]
EC50 [2]: 10.2 nM

COC(=O)N[C@@H](CCSC)C(=O)N1CCC[C@H]1c1nc2cc(-c3cc4ccc3CCc3ccc(c(-c5ccc6[nH]c([C@@H]7CCCN7C(=O)[C@H](CCSC)NC(=O)OC)nc6c5)c3)CC4)ccc2[nH]1 [Compound 50]
EC50 [2]: 8.41 nM

COC(=O)N1CCC[C@H]1C(=O)N1CCC[C@H]1c1nc2cc(-c3cc4ccc3CCc3ccc(c(-c5ccc6[nH]c([C@@H]7CCCN7C(=O)[C@@H]7CCCN7C(=O)OC)nc6c5)c3)CC4)ccc2[nH]1 [Compound 51]
EC50 [2]: > 1000 nM

COC(=O)N[C@H](C(=O)N1CCC[C@H]1c1nc(-c2ccc(-c3cc4ccc3CCc3ccc(c(-c5ccc(-c6c[nH]c([C@@H]7CCCN7C(=O)[C@@H](NC(=O)OC)c7ccccc7)n6)cc5)c3)CC4)cc2)c[nH]1)c1ccccc1 [Compound 52]
EC50 [2]: 9.83 nM

COC(=O)N[C@@H](CCSC)C(=O)N1CCC[C@H]1c1nc(-c2ccc(-c3cc4ccc3CCc3ccc(c(-c5ccc(-c6c[nH]c([C@@H]7CCCN7C(=O)[C@H](CCSC)NC(=O)OC)n6)cc5)c3)CC4)cc2)c[nH]1 [Compound 53]
EC50 [2]: 211 nM

COC(=O)N1CCC[C@H]1C(=O)N1CCC[C@H]1c1nc(-c2ccc(-c3cc4ccc3CCc3ccc(c(-c5ccc(-c6c[nH]c([C@@H]7CCCN7C(=O)[C@@H]7CCCN7C(=O)OC)n6)cc5)c3)CC4)cc2)c[nH]1 [Compound 54]
EC50 [2]: > 1000 nM

C=CCOC(=O)N[C@H](C(=O)N1CCC[C@H]1c1nc(-c2ccc(-c3cc4ccc3CCc3ccc(c(-c5ccc(-c6c[nH]c([C@@H]7CCCN7C(=O)[C@@H](NC(=O)OCC=C)C(C)C)n6)cc5)c3)CC4)cc2)c[nH]1)C(C)C [Compound 55]
EC50 [2]: > 1000 nM

C=CCOC(=O)N[C@@H](CCSC)C(=O)N1CCC[C@H]1c1nc(-c2ccc(-c3cc4ccc3CCc3ccc(c(-c5ccc(-c6c[nH]c([C@@H]7CCCN7C(=O)[C@H](CCSC)NC(=O)OCC=C)n6)cc5)c3)CC4)cc2)c[nH]1 [Compound 57]
EC50 [2]: > 1000 nM

C=CCOC(=O)N1CCC[C@H]1C(=O)N1CCC[C@H]1c1nc(-c2ccc(-c3cc4ccc3CCc3ccc(c(-c5ccc(-c6c[nH]c([C@@H]7CCCN7C(=O)[C@@H]7CCCN7C(=O)OCC=C)n6)cc5)c3)CC4)cc2)c[nH]1 [Compound 58]
EC50 [2]: > 1000 nM

C=CCOC(=O)N[C@H](C(=O)N1CCC[C@H]1c1nc(-c2ccc(-c3cc4ccc3CCc3ccc(c(-c5ccc(-c6c[nH]c([C@@H]7CCCN7C(=O)[C@@H](NC(=O)OCC=C)c7ccccc7)n6)cc5)c3)CC4)cc2)c[nH]1)c1ccccc1 [Compound 59]
EC50 [2]: 548 nM

COC(=O)N[C@H](C(=O)N1[C@H](c2nc(-c3ccc(-c4cc5ccc4CCc4ccc(c(-c6ccc(-c7c[nH]c([C@@H]8C[C@@H]9CCCC[C@@H]9N8C(=O)[C@@H](NC(=O)OC)C(C)C)n7)cc6)c4)CC5)cc3)c[nH]2)C[C@@H]2CCCC[C@@H]21)C(C)C [Compound 60]
EC50 [2]: 128 nM

COC(=O)N[C@@H](CCSC)C(=O)N1[C@H](c2nc(-c3ccc(-c4cc5ccc4CCc4ccc(c(-c6ccc(-c7c[nH]c([C@@H]8C[C@@H]9CCCC[C@@H]9N8C(=O)[C@H](CCSC)NC(=O)OC)n7)cc6)c4)CC5)cc3)c[nH]2)C[C@@H]2CCCC[C@@H]21 [Compound 61]
EC50 [2]: 75.2 nM

COC(=O)N[C@H](C(=O)N1[C@H](c2nc(-c3ccc(-c4cc5ccc4CCc4ccc(c(-c6ccc(-c7c[nH]c([C@@H]8C[C@@H]9CCCC[C@@H]9N8C(=O)[C@@H](NC(=O)OC)c8ccccc8)n7)cc6)c4)CC5)cc3)c[nH]2)C[C@@H]2CCCC[C@@H]21)c1ccccc1 [Compound 62]
EC50 [2]: 75 nM

COC(=O)N1CCC[C@H]1C(=O)N1[C@H](c2nc(-c3ccc(-c4cc5ccc4CCc4ccc(c(-c6ccc(-c7c[nH]c([C@@H]8C[C@@H]9CCCC[C@@H]9N8C(=O)[C@@H]8CCCN8C(=O)OC)n7)cc6)c4)CC5)cc3)c[nH]2)C[C@@H]2CCCC[C@@H]21 [Compound 63]
EC50 [2]: 899 nM

COC(=O)N[C@H](C(=O)N1C[C@H](C)C[C@H]1c1nc2cc(-c3cc4ccc3CCc3ccc(c(-c5ccc6[nH]c([C@@H]7C[C@@H](C)CN7C(=O)[C@@H](NC(=O)OC)C(C)C)nc6c5)c3)CC4)ccc2[nH]1)C(C)C [Compound 66]
EC50 [2]: 0.005 nM

COC(=O)N[C@@H](CCC#N)C(=O)N1[C@H](c2nc3cc(-c4cc5ccc4CCc4ccc(c(-c6ccc7[nH]c([C@@H]8C[C@@H]9CCCC[C@@H]9N8C(=O)[C@H](CCC#N)NC(=O)OC)nc7c6)c4)CC5)ccc3[nH]2)C[C@@H]2CCCC[C@@H]21 [Compound 110]
EC50 [2]: 0.006 nM

COC(=O)N[C@H](C(=O)N1[C@H](c2nc3cc(-c4cc5ccc4CCc4ccc(c(-c6ccc7[nH]c([C@@H]8C[C@@H]9CCCC[C@@H]9N8C(=O)[C@@H](NC(=O)OC)[C@@H](C)OC)nc7c6)c4)CC5)ccc3[nH]2)C[C@@H]2CCCC[C@@H]21)[C@@H](C)OC [Compound 111]
EC50 [2]: 0.005 nM

COC(=O)N[C@H](C(=O)N1[C@H](c2nc3cc(-c4cc5ccc4CCc4ccc(c(-c6ccc7[nH]c([C@@H]8C[C@@H]9CCCC[C@@H]9N8C(=O)[C@@H](NC(=O)OC)[C@@H](C)O)nc7c6)c4)CC5)ccc3[nH]2)C[C@@H]2CCCC[C@@H]21)[C@@H](C)O [Compound 128]
EC50 [2]: 0.008 nM
